Like-named read-outs stand apart in the source and are kept apart here.
Assays:
human TLR8 = human TLR8 (Homo sapiens (Human), UniProt Q9NR97); experiment: TLR8 inhibition reporter assay (HEK-Blue cells, SEAP reporter, R848 stimulation);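 note: compounds tested from 0.05 nM to 50 µM, 22 h at 37 °C, SEAP measured with HEK-Blue Detection, inhibition relative to agonist plus DMSO versus a known inhibitor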
human TLR7 = human TLR7 (Homo sapiens (Human), UniProt Q9NYK1); experiment: TLR7 inhibition reporter assay (HEK-Blue cells, SEAP reporter, gardiquimod stimulation); format: cell-based
Sequence of human TLR7 (Q9NYK1 27-1049): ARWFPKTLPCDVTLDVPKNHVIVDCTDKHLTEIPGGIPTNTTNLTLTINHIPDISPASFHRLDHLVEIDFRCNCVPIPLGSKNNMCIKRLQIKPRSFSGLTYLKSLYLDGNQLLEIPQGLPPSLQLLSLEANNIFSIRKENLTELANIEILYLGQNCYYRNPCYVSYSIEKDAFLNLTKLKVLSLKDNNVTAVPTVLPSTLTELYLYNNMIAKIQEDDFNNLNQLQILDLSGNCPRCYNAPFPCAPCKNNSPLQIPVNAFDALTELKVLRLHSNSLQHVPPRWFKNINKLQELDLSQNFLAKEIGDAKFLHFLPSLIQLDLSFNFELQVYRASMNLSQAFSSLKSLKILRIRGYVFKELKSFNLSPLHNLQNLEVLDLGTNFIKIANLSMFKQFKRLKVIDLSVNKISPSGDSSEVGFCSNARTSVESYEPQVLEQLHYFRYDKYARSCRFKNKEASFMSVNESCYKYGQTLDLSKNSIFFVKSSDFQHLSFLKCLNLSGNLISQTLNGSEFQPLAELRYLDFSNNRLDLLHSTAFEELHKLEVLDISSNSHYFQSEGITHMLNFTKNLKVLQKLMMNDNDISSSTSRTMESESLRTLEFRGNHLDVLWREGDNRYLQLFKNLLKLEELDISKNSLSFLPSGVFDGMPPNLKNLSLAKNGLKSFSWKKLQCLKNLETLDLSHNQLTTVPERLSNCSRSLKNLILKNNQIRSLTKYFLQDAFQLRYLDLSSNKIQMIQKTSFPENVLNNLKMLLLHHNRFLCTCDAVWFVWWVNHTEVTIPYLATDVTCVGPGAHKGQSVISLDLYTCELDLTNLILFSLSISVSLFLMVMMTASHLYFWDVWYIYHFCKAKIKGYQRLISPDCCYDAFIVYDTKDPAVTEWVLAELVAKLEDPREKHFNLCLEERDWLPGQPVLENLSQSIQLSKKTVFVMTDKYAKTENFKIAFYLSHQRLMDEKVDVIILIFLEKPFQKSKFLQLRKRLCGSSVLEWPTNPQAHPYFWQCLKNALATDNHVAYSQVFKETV

human TLR9 = human TLR9 (Homo sapiens (Human), UniProt Q9NR96); experiment: TLR9 inhibition reporter assay (HEK-Blue cells, SEAP reporter, ODN2006 stimulation);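 note: compounds tested over 0.05 nM to 50 µM, 22 h incubation, inhibition taken as SEAP signal drop from agonist plus DMSO wells toward a known inhibitor control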
Sequence of human TLR9 (Q9NR96 26-1032): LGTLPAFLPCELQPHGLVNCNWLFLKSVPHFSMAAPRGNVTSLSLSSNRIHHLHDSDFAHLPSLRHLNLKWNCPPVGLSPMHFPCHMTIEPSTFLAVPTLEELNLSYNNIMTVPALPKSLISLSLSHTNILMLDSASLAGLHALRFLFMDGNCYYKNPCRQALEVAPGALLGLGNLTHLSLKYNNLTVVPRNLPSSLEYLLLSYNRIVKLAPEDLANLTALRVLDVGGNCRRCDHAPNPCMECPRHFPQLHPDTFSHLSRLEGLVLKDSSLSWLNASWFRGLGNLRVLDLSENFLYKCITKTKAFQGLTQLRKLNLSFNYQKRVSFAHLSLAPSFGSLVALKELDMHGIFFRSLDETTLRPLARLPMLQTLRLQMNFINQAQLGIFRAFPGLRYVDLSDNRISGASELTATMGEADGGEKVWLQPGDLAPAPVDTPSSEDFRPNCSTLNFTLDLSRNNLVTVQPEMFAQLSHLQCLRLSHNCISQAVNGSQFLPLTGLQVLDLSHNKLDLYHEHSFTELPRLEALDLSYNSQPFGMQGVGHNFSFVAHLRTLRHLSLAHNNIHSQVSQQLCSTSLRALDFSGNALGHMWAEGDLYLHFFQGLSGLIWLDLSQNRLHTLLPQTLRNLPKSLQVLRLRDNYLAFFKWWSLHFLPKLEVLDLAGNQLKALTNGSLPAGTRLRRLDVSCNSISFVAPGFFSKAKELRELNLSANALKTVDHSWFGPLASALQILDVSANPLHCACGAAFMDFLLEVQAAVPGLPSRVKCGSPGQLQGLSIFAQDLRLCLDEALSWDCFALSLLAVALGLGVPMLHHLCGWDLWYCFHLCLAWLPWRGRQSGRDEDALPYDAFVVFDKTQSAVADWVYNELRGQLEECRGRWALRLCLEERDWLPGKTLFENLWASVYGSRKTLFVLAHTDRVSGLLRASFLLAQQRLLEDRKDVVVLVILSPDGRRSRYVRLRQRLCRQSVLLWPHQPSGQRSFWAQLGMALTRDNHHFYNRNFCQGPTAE

[1] = read-out: TLR8 IC50, HEK-Blue cells overexpressing human TLR8, R848 15.9 μM
[2] = HEK-Blue cells overexpressing human TLR7, gardiquimod 7.5 μM
[3] = read-out: TLR9 IC50, HEK-Blue cells overexpressing human TLR9, ODN2006 5 nM
[4] = TLR8 IC50, HEK-Blue cells overexpressing human TLR8, R848 15.9 μM
[5] = TLR9 IC50, HEK-Blue cells overexpressing human TLR9, ODN2006 5 nM

Sequence of human TLR8 (Q9NR97 27-1041): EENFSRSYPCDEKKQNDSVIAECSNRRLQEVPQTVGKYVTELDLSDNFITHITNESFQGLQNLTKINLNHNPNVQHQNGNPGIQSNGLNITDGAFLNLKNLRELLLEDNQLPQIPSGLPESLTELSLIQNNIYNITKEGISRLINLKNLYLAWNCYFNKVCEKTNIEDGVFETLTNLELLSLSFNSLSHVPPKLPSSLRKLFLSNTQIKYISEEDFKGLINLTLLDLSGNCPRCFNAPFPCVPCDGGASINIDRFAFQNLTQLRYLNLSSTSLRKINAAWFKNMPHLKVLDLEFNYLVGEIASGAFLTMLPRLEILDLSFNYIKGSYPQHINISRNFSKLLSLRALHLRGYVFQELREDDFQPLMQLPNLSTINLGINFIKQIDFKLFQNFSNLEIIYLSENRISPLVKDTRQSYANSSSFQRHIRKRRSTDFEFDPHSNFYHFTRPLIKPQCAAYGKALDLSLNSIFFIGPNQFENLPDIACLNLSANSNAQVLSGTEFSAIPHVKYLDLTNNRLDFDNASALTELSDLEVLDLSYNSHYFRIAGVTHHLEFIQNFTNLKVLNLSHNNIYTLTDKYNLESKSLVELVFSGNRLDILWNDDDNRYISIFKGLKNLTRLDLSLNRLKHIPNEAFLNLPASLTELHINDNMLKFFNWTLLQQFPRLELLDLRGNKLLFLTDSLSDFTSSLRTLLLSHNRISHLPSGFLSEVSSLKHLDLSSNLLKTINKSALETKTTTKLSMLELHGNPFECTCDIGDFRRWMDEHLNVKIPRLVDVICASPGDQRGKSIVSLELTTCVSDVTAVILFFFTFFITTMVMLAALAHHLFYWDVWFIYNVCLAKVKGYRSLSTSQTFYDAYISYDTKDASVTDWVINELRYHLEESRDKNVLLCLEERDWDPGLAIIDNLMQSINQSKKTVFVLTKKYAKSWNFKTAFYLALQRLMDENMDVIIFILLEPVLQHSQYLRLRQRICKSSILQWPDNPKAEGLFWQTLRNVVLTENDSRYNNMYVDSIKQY

SMILES | IC50 (human TLR8; [1]) | IC50 (human TLR7; [2]) | IC50 (human TLR9; [3]) | IC50 (human TLR8; [4]) | IC50 (human TLR9; [5]) | IC50 (human TLR8; read-out: TLR8 IC50, HEK-Blue cells, R848 15.9 μM) | IC50 (human TLR7; HEK-Blue cells, gardiquimod 7.5 μM) | IC50 (human TLR9; read-out: TLR9 IC50, HEK-Blue cells, ODN2006 5 nM)
Cc1cc(-c2[nH]c3ccc(C4CCN(C)CC4)cc3c2C(C)C)cc(C)n1 [Example 429, 2-(2,6-dimethylpyridin-4-yl)-3-isopropyl-5-(1-methylpiperidin-4-yl)-1H-indole] | 5.5 nM | 2.2 nM | 484 nM |  |  |  |  | 
Cc1cc(-c2[nH]c3ccc(C4CCN(C(=O)C5CC(=O)N(C(C)(C)C)C5)CC4)cc3c2C(C)C)ccn1 (stereo not drawn) [Example 613, 1-(tert-butyl)-4-(4-(3-isopropyl-2-(2-methylpyridin-4-yl)-1H-indol-5-yl)piperidine-1-carbonyl)pyrrolidin-2-one] | 206 nM | 55.1 nM | 7630 nM |  |  |  |  | 
Cc1cc(-c2[nH]c3ccc(C4CCN(C(=O)CN(C)CC(C)C)CC4)cc3c2C(C)C)cc(C)n1 [Example 355, 1-(4-(2-(2,6-dimethylpyridin-4-yl)-3-isopropyl-1H-indol-5-yl)piperidin-1-yl)-2-(isobutyl (methyl)amino)ethan-1-one] | 34 nM | 8.8 nM | 1070 nM |  |  |  |  | 
Cc1cc(-c2[nH]c3ccc(C4CCN(CC(=O)N5CC[C@H](O)C5)CC4)cc3c2C(C)C)cc(C)n1 [Example 273, (S)-2-(4-(2-(2,6-dimethylpyridin-4-yl)-3-isopropyl-1H-indol-5-yl)piperidin-1-yl)-1-(3-hydroxypyrrolidin-1-yl)ethan-1-one] |  | 1.5 nM |  | 5.4 nM | 66 nM |  |  | 
Cc1cc(-c2[nH]c3ccc(C4CCN(CC(=O)NCC#N)CC4)cc3c2C(C)C)cc(C)n1 [Example 239, N-(cyanomethyl)-2-(4-(2-(2,6-dimethylpyridin-4-yl)-3-isopropyl-1H-indol-5-yl)piperidin-1-yl)acetamide] | 8.9 nM | 6.7 nM | 1590 nM |  |  |  |  | 
Cc1cc(-c2[nH]c3ccc(C4CCN(C(=O)C5CC(=O)N(C)C5)CC4)cc3c2C(C)C)cc(F)n1 (stereo not drawn) [Example 502, 4-(4-(2-(2-fluoro-6-methylpyridin-4-yl)-3-isopropyl-1H-indol-5-yl)piperidine-1-carbonyl)-1-methylpyrrolidin-2-one] | 156 nM | 28.4 nM | 24700 nM |  |  |  |  | 
CNCCC(=O)N1CCC(c2ccc3[nH]c(-c4cc(C)nc(C)c4)c(C(C)C)c3c2)CC1 [Example 183, 1-(4-(2-(2,6-dimethylpyridin-4-yl)-3-isopropyl-1H-indol-5-yl)piperidin-1-yl)-3-(methylamino)propan-1-one] |  | 0.9 nM |  | 19.7 nM | 323 nM |  |  | 
CNC(=O)C(=O)N1CCC(c2ccc3[nH]c(-c4ccnc(C)c4)c(C(C)C)c3c2)CC1 [Example 879, 2-(4-(3-isopropyl-2-(2-methylpyridin-4-yl)-1H-indol-5-yl)piperidin-1-yl)-N-methyl-2-oxoacetamide] |  |  |  |  |  | 168 nM | 37 nM | > 50000 nM
Cc1cc(-c2[nH]c3ccc(C4CCN(CC(=O)N5C(C)CCC5C)CC4)cc3c2C(C)C)cc(C)n1 (stereo not drawn) [Example 261, 2-(4-(2-(2,6-dimethylpyridin-4-yl)-3-isopropyl-1H-indol-5-yl)piperidin-1-yl)-1-(2,5-dimethylpyrrolidin-1-yl)ethan-1-one] | 22.3 nM | 5.7 nM | 451 nM |  |  |  |  | 
CCc1c(-c2ccnc(OCCN(C)C)c2)[nH]c2ccc(C3CCN(C4CCN(CC(C)C)CC4)CC3)cc12 [Example 770, 2-((4-(3-ethyl-5-(1′-isobutyl-[1,4′-bipiperidin]-4-yl)-1H-indol-2-yl)pyridin-2-yl)oxy)-N,N-dimethylethan-1-amine] | > 50000 nM | 6730 nM | 310 nM |  |  |  |  | 
COC(=O)C1CC(N2CCC(c3ccc4[nH]c(-c5ccnc(C)c5)c(C(C)C)c4c3)CC2)CCN1 (stereo not drawn) [Example 704, methyl 4-(3-isopropyl-2-(2-methylpyridin-4-yl)-1H-indol-5-yl)-[1,4′-bipiperidine]-2′-carboxylate] | 4.1 nM | 20.9 nM | 551 nM |  |  |  |  | 
Cc1cc(-c2[nH]c3ccc(C4CCN(C5CCOC6CCCC65)CC4)cc3c2C(C)C)cc(C)n1 (stereo not drawn) [Example 458, 2-(2,6-dimethylpyridin-4-yl)-3-isopropyl-5-(1-(octahydrocyclopenta[b]pyran-4-yl)piperidin-4-yl)-1H-indole] | 21.3 nM | 16.6 nM | 534 nM |  |  |  |  | 
Cc1cc(-c2[nH]c3ccc(C4CCN(C(=O)C5CCNC5)CC4)cc3c2C(C)C)cc(C)n1 (single isomer, unassigned) [Example 182, (4-(2-(2,6-dimethylpyridin-4-yl)-3-isopropyl-1H-indol-5-yl)piperidin-1-yl)(pyrrolidin-3-yl) methanone] |  | 1.3 nM |  | 12 nM | 151 nM |  |  | 
Cc1cc(-c2[nH]c3ccc(C4CCN(CC(=O)NCCC(C)C)CC4)cc3c2C(C)C)cc(C)n1 [Example 237, 2-(4-(2-(2,6-dimethylpyridin-4-yl)-3-isopropyl-1H-indol-5-yl)piperidin-1-yl)-N-isopentylacetamide] | 51.1 nM | 24.9 nM | 1890 nM |  |  |  |  | 
Cc1cc(-c2[nH]c3ccc(C4CCN(C(=O)CNC5(C)CC5)CC4)cc3c2C(C)C)cc(C)n1 [Example 360, 1-(4-(2-(2,6-dimethylpyridin-4-yl)-3-isopropyl-1H-indol-5-yl)piperidin-1-yl)-2-((1-methylcyclopropyl)amino)ethan-1-one] | 15.8 nM | 4 nM | 795 nM |  |  |  |  | 
Cc1nccc(-c2[nH]c3ccc(C4CCN(C(=O)C5CC(=O)N(C)C5)CC4)cc3c2C(C)C)c1F (stereo not drawn) [Example 582, 4-(4-(2-(3-fluoro-2-methylpyridin-4-yl)-3-isopropyl-1H-indol-5-yl)piperidine-1-carbonyl)-1-methylpyrrolidin-2-one] | 48 nM | 30.1 nM | > 50000 nM |  |  |  |  | 
CNCC(=O)N1CCC(c2ccc3[nH]c(-c4cc(C)nc(C5CC5)c4)c(C(C)C)c3c2)CC1 [Example 508, 1-(4-(2-(2-cyclopropyl-6-methylpyridin-4-yl)-3-isopropyl-1H-indol-5-yl)piperidin-1-yl)-2-(methylamino)ethan-1-one] | 57.9 nM | 8.8 nM | 592 nM |  |  |  |  | 
Cc1cc(-c2[nH]c3ccc(C4CCN(CC(=O)N(C)C5CCCCC5)CC4)cc3c2C(C)C)cc(C)n1 [Example 278, N-cyclohexyl-2-(4-(2-(2,6-dimethylpyridin-4-yl)-3-isopropyl-1H-indol-5-yl)piperidin-1-yl)-N-methylacetamide] | 28.5 nM | 6.1 nM | 288 nM |  |  |  |  | 
Cc1cc(-c2[nH]c3ccc(C4CCN(CC(O)C(F)(F)F)CC4)cc3c2C(C)C)cc(C)n1 (stereo not drawn) [Example 313, 3-(4-(2-(2,6-dimethylpyridin-4-yl)-3-isopropyl-1H-indol-5-yl)piperidin-1-yl)-1,1,1-trifluoropropan-2-ol] | 6.3 nM | 39.9 nM | 8060 nM |  |  |  |  | 
Cc1cc(-c2[nH]c3ccc(C4CCN(C5CCCC5)CC4)cc3c2C(C)C)cc(C)n1 [Example 326, 5-(1-cyclopentylpiperidin-4-yl)-2-(2,6-dimethylpyridin-4-yl)-3-isopropyl-1H-indole] | 29.2 nM | 16.1 nM | 1120 nM |  |  |  |  | 
Cc1cc(-c2[nH]c3ccc(C4CCN(CC(F)F)CC4)cc3c2C(C)C)c(F)cn1 [Example 649, 5-(1-(2,2-difluoroethyl)piperidin-4-yl)-2-(5-fluoro-2-methylpyridin-4-yl)-3-isopropyl-1H-indole] | 16.2 nM | 45.7 nM | > 50000 nM |  |  |  |  | 
